Measured values reported in ChEMBL document CHEMBL4419178, “Yap1 inhibitors that target the interaction of yap1 with oct4” (2018).
Blank lines part the entries; values can stand above or below the compound they belong to. Active and inactive are the calls of the source. The calls are words filed in the database; no cut-off is given here.

Columns and labels:
[1] = target: Transcriptional coactivator YAP1 (Homo sapiens) (UniProt P46937); assay: Inhibition of YAP1 in human A549 cells assessed as reduction in PDK2 protein expression at 10 uM incubated for 72 hrs by Western blot analysis; assay type: cell-based
Sequence of Transcriptional coactivator YAP1 (Homo sapiens) (P46937 whole entry): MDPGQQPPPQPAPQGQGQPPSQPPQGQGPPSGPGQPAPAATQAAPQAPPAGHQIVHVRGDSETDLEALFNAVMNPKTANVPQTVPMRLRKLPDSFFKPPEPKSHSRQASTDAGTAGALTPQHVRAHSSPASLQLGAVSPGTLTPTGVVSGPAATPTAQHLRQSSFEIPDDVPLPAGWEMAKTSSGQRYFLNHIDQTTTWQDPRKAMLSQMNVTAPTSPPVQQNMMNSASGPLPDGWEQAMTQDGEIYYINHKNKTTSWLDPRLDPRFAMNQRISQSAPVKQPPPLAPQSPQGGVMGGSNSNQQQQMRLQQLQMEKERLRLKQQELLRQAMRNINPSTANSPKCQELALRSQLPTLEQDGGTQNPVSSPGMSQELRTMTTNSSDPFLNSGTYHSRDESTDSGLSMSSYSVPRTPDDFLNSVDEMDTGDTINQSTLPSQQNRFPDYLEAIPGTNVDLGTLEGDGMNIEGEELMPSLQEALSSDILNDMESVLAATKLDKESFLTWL

[2] = target: Transcriptional coactivator YAP1 (Homo sapiens) (UniProt P46937); assay: Inhibition of YAP1 in human NCI-H1650 cells assessed as reduction in c-Myc protein expression at 10 uM incubated for 72 hrs by Western blot analysis; assay type: cell-based
[3] = target: Transcriptional coactivator YAP1 (Homo sapiens) (UniProt P46937); assay: Inhibition of YAP1 in human A549 cells assessed as reduction in Sox2 protein expression at 10 uM incubated for 72 hrs by Western blot analysis; assay type: cell-based
[4] = target: Transcriptional coactivator YAP1 (Homo sapiens) (UniProt P46937); assay: Inhibition of YAP1 in human A549 cells assessed as reduction in c-Myc protein expression at 10 uM incubated for 72 hrs by Western blot analysis; assay type: cell-based
[5] = target: Transcriptional coactivator YAP1 (Homo sapiens) (UniProt P46937); assay: Inhibition of YAP1 in human NCI-H1650 cells assessed as reduction in Sox2 protein expression at 10 uM incubated for 72 hrs by Western blot analysis; assay type: cell-based
[6] = target: Transcriptional coactivator YAP1 (Homo sapiens) (UniProt P46937); assay: Inhibition of YAP1 in human NCI-H1650 cells assessed as reduction in PDK2 protein expression at 10 uM incubated for 72 hrs by Western blot analysis; assay type: cell-based
[7] = system: NCI-H2286; assay: Cytotoxicity in human NCI-H2286 cells assessed as reduction in cell viability at 5 to 50 uM incubated for 96 hrs by MTT assay; assay type: functional, cell-based
[8] = system: NCI-H2170; assay: Cytotoxicity in human NCI-H2170 cells assessed as reduction in cell viability at 5 to 50 uM incubated for 96 hrs by MTT assay; assay type: functional, cell-based
[9] = system: NCI-H1650; assay: Inhibition of self-renewal capacity in stem-like side-population cells of human NCI-H1650 cells assessed as reduction in number of spheres at 5 to 50 uM incubated for 10 days by sphere formation assay; assay type: functional, cell-based
[10] = system: A549; assay: Cytotoxicity in human A549 cells assessed as reduction in cell viability at 1 to 20 uM incubated for 72 hrs by MTT assay; assay type: functional, cell-based
[11] = system: NCI-H1650; assay: Cytotoxicity in human NCI-H1650 cells assessed as reduction in cell viability at 1 to 20 uM incubated for 72 hrs by MTT assay; assay type: functional, cell-based
[12] = target: Transcriptional coactivator YAP1 (Homo sapiens) (UniProt P46937); assay: Inhibition of YAP1 (unknown origin) assessed as disruption in YAP1/OCT4 interaction at 50 uM by cell based assay
[13] = system: NCI-H1650; assay: Cytotoxicity in human NCI-H1650 cells assessed as induction of cell killing in presence of cancer associated fibroblasts at 20 to 50 uM incubated for 24 to 48 hrs by cytotracker-red/green dye staining based immunofluorescence microscopy; assay type: functional
[14] = system: NCI-H1650; assay: Cytotoxicity in human NCI-H1650 cells assessed as reduction in cell viability at 20 to 50 uM incubated for 72 hrs by MTT assay; assay type: functional, cell-based
[15] = Lipophilicity, logP of the compound; assay type: physicochemical; settings: octanol/water
[16] = Cytotoxicity in human cancer associated fibroblasts at 20 to 50 uM incubated for 24 to 48 hrs by cytotracker-red/green dye staining based immunofluorescence microscopy
[17] = target: Transcriptional coactivator YAP1 (Homo sapiens) (UniProt P46937); assay: Inhibition of YAP1 (unknown origin) assessed as disruption in YAP1/OCT4 interaction at 10 uM by ELISA relative to control
[18] = target: Transcriptional coactivator YAP1 (Homo sapiens) (UniProt P46937); assay: Inhibition of YAP1 in human NCI-H1650 cells assessed as disruption in YAP1/OCT4 interaction at 20 to 50 uM incubated for 48 hrs by proximity ligation assay; assay type: cell-based
[19] = system: NCI-H1650; assay: Inhibition of YAP1 in human NCI-H1650 cells assessed as disruption in YAP1/TEAD2 interaction at 20 to 50 uM incubated for 48 hrs by proximity ligation assay; assay type: cell-based
[20] = system: NCI-H1650; assay: Cytotoxicity in human NCI-H1650 cells assessed as reduction in cell viability at 20 to 50 uM incubated for 24 hrs followed by medium replacement with RPMI medium with 10% FCS for 48 hrs by MTT assay; assay type: functional, cell-based
[21] = system: NCI-H1703; assay: Effect on expression of Nanog mRNA expression in human NCI-H1703 cells at 5 to 10 uM incubated for 72 hrs by RT-PCR method; assay type: cell-based; settings: nci-h1703, 72 h
[22] = target: Transcriptional coactivator YAP1 (Homo sapiens) (UniProt P46937); assay: Inhibition of YAP1 in human NCI-H1650 cells assessed as suppression of vimentin mRNA expression at 5 to 10 uM incubated for 72 hrs by RT-PCR method; assay type: cell-based
[23] = system: NCI-H1703; assay: Effect on expression of Oct4 mRNA expression in human NCI-H1703 cells at 5 to 10 uM incubated for 72 hrs by RT-PCR method; assay type: cell-based; settings: nci-h1703, 72 h
[24] = system: NCI-H1703; assay: Inhibition of YAP1/TEAD2 interaction in human NCI-H1703 cells assessed as suppression of CTGF mRNA expression at 5 to 10 uM incubated for 72 hrs by RT-PCR method; assay type: cell-based
[25] = target: Transcriptional coactivator YAP1 (Homo sapiens) (UniProt P46937); assay: Inhibition of YAP1 in human NCI-H1703 cells assessed as suppression of fibronectin mRNA expression at 5 to 10 uM incubated for 72 hrs by RT-PCR method; assay type: cell-based
[26] = system: NCI-H1703; assay: Inhibition of adherence-independent cell growth in human NCI-H1703 cells at 10 uM incubated for 33 days; assay type: functional, cell-based
[27] = target: Transcriptional coactivator YAP1 (Homo sapiens) (UniProt P46937); assay: Inhibition of YAP1 in human NCI-H1703 cells assessed as suppression of PDK2 mRNA expression at 5 to 10 uM incubated for 72 hrs by RT-PCR method; assay type: cell-based
[28] = target: Transcriptional coactivator YAP1 (Homo sapiens) (UniProt P46937); assay: Inhibition of YAP1 in human NCI-H1650 cells assessed as suppression of Sox2 mRNA expression at 5 to 10 uM incubated for 72 hrs by RT-PCR method; assay type: cell-based
[29] = target: Transcriptional coactivator YAP1 (Homo sapiens) (UniProt P46937); assay: Inhibition of YAP1 in human NCI-H146 cells assessed as suppression of HK2 mRNA expression at 5 to 10 uM incubated for 72 hrs by RT-PCR method; assay type: cell-based
[30] = target: Transcriptional coactivator YAP1 (Homo sapiens) (UniProt P46937); assay: Inhibition of YAP1 in human NCI-H1650 cells assessed as suppression of PD-L1 mRNA expression at 5 to 10 uM incubated for 72 hrs by RT-PCR method; assay type: cell-based
[31] = system: NCI-H1650; assay: Inhibition of YAP1/TEAD2 interaction in human NCI-H1650 cells assessed as suppression of CTGF mRNA expression at 5 to 10 uM incubated for 72 hrs by RT-PCR method; assay type: cell-based
[32] = target: Transcriptional coactivator YAP1 (Homo sapiens) (UniProt P46937); assay: Inhibition of YAP1 in human NCI-H1650 cells assessed as suppression of HK2 mRNA expression at 5 to 10 uM incubated for 72 hrs by RT-PCR method; assay type: cell-based
[33] = target: Transcriptional coactivator YAP1 (Homo sapiens) (UniProt P46937); assay: Inhibition of YAP1 in human NCI-H1650 cells assessed as suppression of fibronectin mRNA expression at 5 to 10 uM incubated for 72 hrs by RT-PCR method; assay type: cell-based
[34] = system: NCI-H1650; assay: Inhibition of adherence-independent cell growth in human NCI-H1650 cells at 10 uM incubated for 33 days; assay type: functional, cell-based
[35] = system: NCI-H146; assay: Inhibition of self-renewal capacity in methotrexate insensitive stem-like side-population cells of human NCI-H146 cells assessed as reduction in number of spheres at 2 uM incubated for 3 days after 7 days methotrexate exposure by sphere formation assay; assay type: functional
[36] = target: Transcriptional coactivator YAP1 (Homo sapiens) (UniProt P46937); assay: Inhibition of YAP1 in human NCI-H146 cells assessed as suppression of Sox2 mRNA expression at 5 to 10 uM incubated for 72 hrs by RT-PCR method; assay type: cell-based
[37] = system: NCI-H1650; assay: Effect on expression of Oct4 mRNA expression in human NCI-H1650 cells at 5 to 10 uM incubated for 72 hrs by RT-PCR method; assay type: cell-based; settings: nci-h1650, 72 h
[38] = target: Transcriptional coactivator YAP1 (Homo sapiens) (UniProt P46937); assay: Inhibition of YAP1 in human NCI-H146 cells assessed as suppression of PDK2 mRNA expression at 5 to 10 uM incubated for 72 hrs by RT-PCR method; assay type: cell-based
[39] = system: NCI-H1650; assay: Inhibition of adherence-independent cell growth in human NCI-H1650 cells at 5 uM incubated for 33 days; assay type: functional, cell-based
[40] = target: Transcriptional coactivator YAP1 (Homo sapiens) (UniProt P46937); assay: Inhibition of YAP1 in human NCI-H1703 cells assessed as suppression of HK2 mRNA expression at 5 to 10 uM incubated for 72 hrs by RT-PCR method; assay type: cell-based
[41] = target: Transcriptional coactivator YAP1 (Homo sapiens) (UniProt P46937); assay: Inhibition of YAP1 in human NCI-H1703 cells assessed as suppression of vimentin mRNA expression at 5 to 10 uM incubated for 72 hrs by RT-PCR method; assay type: cell-based
[42] = system: NCI-H1703; assay: Inhibition of adherence-independent cell growth in human NCI-H1703 cells at 5 uM incubated for 33 days; assay type: functional, cell-based
[43] = system: NCI-H1975; assay: Cytotoxicity in gefitinib and erlotinib resistant human NCI-H1975 cells assessed as reduction in cell viability at 1 to 10 uM incubated for 72 hrs by MTT assay; assay type: functional, cell-based
[44] = target: Transcriptional coactivator YAP1 (Homo sapiens) (UniProt P46937); assay: Inhibition of YAP1 in human NCI-H1703 cells assessed as suppression of PD-L1 mRNA expression at 5 to 10 uM incubated for 72 hrs by RT-PCR method; assay type: cell-based
[45] = target: Transcriptional coactivator YAP1 (Homo sapiens) (UniProt P46937); assay: Inhibition of YAP1 in human NCI-H1650 cells assessed as suppression of PDK2 mRNA expression at 5 to 10 uM incubated for 72 hrs by RT-PCR method; assay type: cell-based
[46] = target: Transcriptional coactivator YAP1 (Homo sapiens) (UniProt P46937); assay: Inhibition of YAP1 in human NCI-H1703 cells assessed as suppression of Sox2 mRNA expression at 5 to 10 uM incubated for 72 hrs by RT-PCR method; assay type: cell-based
[47] = system: NCI-H146; assay: Effect on expression of Nanog mRNA expression in human NCI-H146 cells at 5 to 10 uM incubated for 72 hrs by RT-PCR method; assay type: cell-based; settings: nci-h146, 72 h
[48] = system: NCI-H146; assay: Effect on expression of Oct4 mRNA expression in human NCI-H146 cells at 5 to 10 uM incubated for 72 hrs by RT-PCR method; assay type: cell-based; settings: nci-h146, 72 h
[49] = system: NCI-H1650; assay: Effect on expression of Nanog mRNA expression in human NCI-H1650 cells at 5 to 10 uM incubated for 72 hrs by RT-PCR method; assay type: cell-based; settings: nci-h1650, 72 h

inhibition [1]: Active
inhibition [2]: Active
inhibition [3]: Active
inhibition [4]: Active
inhibition [5]: Active
inhibition [6]: Active
SMILES: COC(=O)[C@H](Cc1ccc(OCc2ccccc2)cc1)NC(=O)CC1CCN(C(=O)Cc2ccc(NC(=O)OC(C)(C)C)cc2)CC1

SMILES: COC(=O)[C@H](Cc1ccc(OCc2ccccc2)cc1)NC(=O)CC1CCN(C(=O)CCc2cc(OC)c(OC)c(OC)c2)CC1
Activity [7]: Active
Activity [8]: Active
inhibition [9]: Active
Activity [10]: Active
Activity [11]: Active

inhibition [12]: 90%
logP [15]: 4.7
inhibition [17]: 90%
inhibition [18]: Active
SMILES: COC(=O)[C@H](Cc1ccc(OCc2ccccc2)cc1)NC(=O)CC1CCN(C(=O)CCc2ccccc2)CC1
Activity [7]: Active
Activity [13]: Active
Activity [8]: Active
Activity [14]: Active
inhibition [9]: Active
Activity [16]: Non-Toxic
Activity [10]: Active
inhibition [19]: Active
Activity [11]: Active
Activity [20]: Active

inhibition [1]: Active
inhibition [22]: Active
inhibition [25]: Active
inhibition [27]: Active
inhibition [28]: Active
inhibition [29]: Active
inhibition [30]: Active
inhibition [2]: Active
inhibition [32]: Active
inhibition [33]: Active
inhibition [36]: Active
inhibition [3]: Active
inhibition [38]: Active
inhibition [40]: Active
inhibition [41]: Active
inhibition [44]: Active
inhibition [4]: Active
inhibition [5]: Active
inhibition [6]: Active
inhibition [45]: Active
inhibition [46]: Active
SMILES: COC(=O)[C@H](Cc1ccc(OCc2ccccc2)cc1)NC(=O)CC1CCN(C(=O)CCCc2ccccc2)CC1
Activity [21]: Non-Toxic
Activity [23]: Non-Toxic
inhibition [24]: inactive
inhibition [26]: Active
inhibition [31]: inactive
inhibition [34]: Active
inhibition [35]: Active
Activity [37]: Non-Toxic
inhibition [39]: Active
inhibition [42]: Active
Activity [43]: Active
Activity [47]: Non-Toxic
Activity [48]: Non-Toxic
Activity [49]: Non-Toxic
